The subject of assay [1] is corpus cavernosal strips (CCS). Description: Adenosine-induced relaxation of corpus cavernosal strips (CCS). Type of assay: cell-based, mouse. The procedure: FIG. 16. […] CCS of wild type mice were treated with different concentrations of adenosine with or without DCF (5 μM), a specific inhibitor of adenosine deaminase. Then the extent (mN) of force was monitored. (b) CCS of wild type mice were treated with 100 μM adenosine in the presence of different concentrations of DCF (0-100 uM). Then the extent of force was measured. Data are expressed as mean±SE. *p<0.05, adenosine treated versus the control, **p<0.05, DCF treated versus the adenosine treated.
FIG. 17. A2BR signaling is required for adenosine-mediated corpus cavernosal strips (CCS) relaxation. (a) CCS of wild type mice were treated with different concentrations of theophiline (1-10 μM) in the presence or absence of adenosine (100 μM). The force changes were measured by force transducer. Data are expressed as mean±SE. *p<0.05, adenosine treated versus the control, **p<0.05, theophiline treated versus the untreated, N=5. (b) CCS from wild type, A2AR, A1R A2BR and A3R-deficient mice were treated with different concentrations of adenosine. The relaxation was measured by force transducer. Data are expressed as mean±SE. *p<0.05, adenosine treated versus the wild type. (c) CCS were isolated from wild type and A2BR-deficient mice and treated with different concentrations of adenosine in the presence or absence of L-NAME (100 μM) or MRS1706 (10 μM). 10 min after treatment, cellular extracts were collected and cAMP levels were measured by using a commercial enzyme immunoassay kit (Amersham Pharmacia). Data are expressed as mean±SE. *p<0.05, adenosine treated versus the control without treatment; **p<0.05, adenosine treated with MRS1706 versus the adenosine treated alone; ***p<0.05, CCS of A2BR-deficient mice treated with adenosine versus the CCS of wild type mice treated with adenosine. N=6-7. (d) CCS of A2BR and ADA double deficient mice lost the hypersensitivity to nerve stimulation compared to ADA deficient mice.
Function experiments. The tunica albuginea was cut longitudinally, starting at the most proximal point of the corpus cavernosum (CC) toward the penile shaft, and the erectile tissue was partially dissected free from the tunica. One strip of tissue (0.3×0.3×3 mm) was obtained from each corpus cavernosum. The contractility of each isolated corpus cavernosum smooth muscle cells (CCSM) strip was measured using an isometric force transducer (AD Instrument Inc., Georgia, Vt., USA). The strip was mounted in a thermostatically controlled tissue bath containing aerated PSS (mM: 119 NaCl, 4.7 KCl, 24 NaHCO 3, 1.2 KH2PO4, 2.5 CaCl2, 1.2 MgSO4, 0.023 EDTA, and 11 glucose; 5 ml volume, 95% O2 and 5% CO2, 37° C.) and stretched to a resting tension of 0.1 mN. The contractile responses of the strips were analysed by adding 10 μM phenylephrine to the bath, and force changes were recorded in response to drug application and to electrical field stimulation. The particular electrical field stimulation parameters of 0-30V, 30 HZ with a pulse width of approximately 0.5 ms, are commonly used in the mice. […] The changes of cAMP and cGMP contents in CC strips were subsequently measured by commercial enzyme immunoassay kit (Amersham Pharmacia) (see below).

Assay [2] relates to corpus cavernosal strips (CCS). Description: cGMP production in CCS (penile organ culture) in response to adenosine. Type of assay: cell-based, mouse. The procedure: FIG. 18. Adenosine stimulated both cAMP and cGMP induction in corpus cavernosal smooth muscle cells (CCSM) via A2BR activation. (a) Adenosine receptor expression profile in purified primary CCSM. CCSM were purified from adult mouse penes. […] (b) CCSM were isolated and cultured from mouse penes. The cells were switched to serum-free medium and treated with different concentrations of adenosine with or without A2BR antagonist (MRS1706-10 μM), A2AR antagonist (ZM241385-50 nM) or A2AR agonist (CGS-21680-10 μM) alone for 10 min. Then cellular extracts were collected and cAMP levels were measured using an ELISA kit. […] After 10 min treatment, the cellular extracts were collected and cAMP levels were measured by using a commercial enzyme immunoassay kit (Amersham Pharmacia). […] 10 min after treatment, cellular extracts were collected and cGMP levels were measured by using a commercial enzyme immunoassay kit (Amersham Pharmacia). Data are expressed as mean±SE. *p<0.05, adenosine treated versus the control; **p<0.05, adenosine treated with MRS1706 versus the adenosine treated; ***p<0.05, CCS of A2BR-deficient mice treated with adenosine versus the CCS of wild type mice treated with adenosine. […] After 10 min treatment, the cellular extracts were collected and cAMP levels were measured by using a commercial enzyme immunoassay kit (Amersham Pharmacia). […]

“Also recorded” adds a separate entry of the source.

`Nc1ncnc2c1ncn2[C@@H]1O[C@H](CO)[C@@H](O)[C@H]1O` [adenosine]: the CCS relaxation result in assay [1] (A1R, A2AR and A3R deficient mice and wild type mice) is reported as “dose-dependent increase in relaxation”; in assay [1] (CCS from A2BR deficient mice) it was “completely absent”; in assay [1] (CCS from wild type mice, different concentrations), “induced CCS relaxation in a dosage dependent manner”. The values for the cGMP production entry in assay [2] (CCS of A2BR-deficient mice) and in assay [2] (wild type penile organ culture (CCS)) were “absent” and “can increase cGMP production; also recorded: induced by adenosine in a dosage-dependent manner”, respectively.

The record behind these values is US20100254965A1, “Adenosine Signaling in Diagnosis, Treatment, and Prevention of Priapism and Erectile Dysfunction” (BOARD OF REGENTS ,THE UNIVERSITY OF TEXAS SYSTEM, priority 2006, published 2010).
